Series [1] addresses T1, human serotonin transporter (hSERT) (Homo sapiens, UniProt P31645).
T1 construct: expressed in transfected cells; host or cells: HEK-293 (human embryonic kidney cells), stably transfected
In words: Inhibition of 3H-Serotonin uptake into HEK-293 cells stably transfected with hSERT. The series is classed as cell-based. Here is the method:
A number of compounds were tested for biological activity by their ability to inhibit the uptake of serotonin by human serotonin transporters as follows.
Human embryonic kidney cells (HEK-293) stably transfected with either the human serotonin transporter (hSERT), noradrenaline transporter (hNET) or dopamine transporter (hDAT) were cultured under standard cell culture techniques (cells were grown at 37° C and 5% CO2 in DMEM-culture media (supplemented with 10% dialysed foetal calf serum (FCS), 2 mM 1-glutamine and 250 μg/ml geneticin)). Cells were harvested for the assay to yield a cell suspension of 750,000 cells/ml.
(i) Determination of inhibitor potency
All test compounds were dissolved in 100% DMSO and diluted down in assay buffer to give appropriate test concentrations. Assays were carried out in 96-well filter bottom plates. Cells (7500 cells/assay well) were pre-incubated in standard assay buffer containing either test compound, standard inhibitor or compound vehicle (1 % DMSO) for 5 minutes. Reactions were started by addition of either ^3H-Serotonin, ^3H-Noradrenaline or ^3H-Dopamine substrates. All reactions were carried out at room temperature in a shaking incubator. Incubation times were 5 minutes for the hSERT and hDAT assays and 15 minutes for the hNET assay. Reactions were terminated by removal of the reaction mixture using a vacuum manifold followed by rapid washing with ice cold assay buffer. The quantity of ^3H-substrate incorporated into the cells was then quantified.
Assay plates were dried in a microwave oven, scintillation fluid added, and radioactivity measured.
(iii) Standard Assay Buffer Composition:
Note: The pH of the buffer was adjusted to 7.40 with 1 M NaOH before addition of CaCI2 and pargyline.
(iv) Summary of Assay Parameters

Setting [2] is: HEK-293 cells transfected with hSERT, 3H-Serotonin uptake, 5 minutes incubation, room temperature, read-out: serotonin re-uptake inhibition (SRI) IC50.

By melting point is commonly meant the temperature, or range, at which the solid turns liquid. The IC50 is the midpoint of a concentration-inhibition curve.

Where a name gives a salt, the structure may show the parent alone. Read-outs that look alike come from different tables or passages of the source. Where only a bound is given, the exact number is not on record here.

T1 sequence (P31645 whole entry): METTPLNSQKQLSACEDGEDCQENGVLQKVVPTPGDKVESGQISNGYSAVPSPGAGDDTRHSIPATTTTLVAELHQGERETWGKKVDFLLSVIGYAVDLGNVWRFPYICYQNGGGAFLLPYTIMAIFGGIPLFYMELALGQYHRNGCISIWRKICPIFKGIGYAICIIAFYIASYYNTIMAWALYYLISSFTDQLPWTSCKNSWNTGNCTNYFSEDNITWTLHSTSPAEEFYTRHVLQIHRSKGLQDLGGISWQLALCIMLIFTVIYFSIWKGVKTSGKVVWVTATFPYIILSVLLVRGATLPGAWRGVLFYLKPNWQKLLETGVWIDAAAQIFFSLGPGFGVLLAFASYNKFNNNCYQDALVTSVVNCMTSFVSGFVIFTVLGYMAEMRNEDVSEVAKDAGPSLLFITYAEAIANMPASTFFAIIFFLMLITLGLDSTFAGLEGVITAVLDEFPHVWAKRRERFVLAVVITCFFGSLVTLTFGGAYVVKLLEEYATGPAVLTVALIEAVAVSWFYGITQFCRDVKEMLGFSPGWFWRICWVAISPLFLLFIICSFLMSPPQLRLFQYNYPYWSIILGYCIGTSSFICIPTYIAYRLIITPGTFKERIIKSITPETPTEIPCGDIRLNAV

`CSc1ccc(Oc2ccc(S(N)(=O)=O)cc2CN(C)C)cc1` (as salt: hydrochloride) [Example 28, 3-[(Dimethylamino)methyl]-4-[4-(methylsulfanyl)phenoxy]benzenesulfonamide] displayed a melting point of 193 to 194 °C.

Consider `CN(C)Cc1cc(Br)ccc1Oc1ccc(C(F)(F)F)cc1` [Example 3], for which, in series [1] (setting [2]), the IC50 is no more than 50 nM. Same read-out and setting: to `CSc1ccc(Oc2ccc(Br)cc2CN(C)C)cc1` [Example 9] belongs no more than 50 nM.

Turning to `COc1ccc(Oc2ccc(SC)cc2)c(CN(C)C)c1` [Example 14], the IC50 in series [1] (setting [2]) is no more than 50 nM. Molecule `CNCc1cc(Br)ccc1Oc1ccc(SC)cc1` [Example 23, N-{5-Bromo-2-[4-(methylsulfanyl)phenoxy]benzyl}-N-methylamine] registered an IC50 in series [1] of no more than 50 nM. Turning to `CSc1ccc(Oc2ccc(S(N)(=O)=O)cc2CN(C)C)cc1` [Example 28, 3-[(Dimethylamino)methyl]-4-[4-(methylsulfanyl)phenoxy]benzenesulfonamide], the IC50 in series [1] (setting [2]) is no more than 50 nM. As to `CNS(=O)(=O)c1ccc(Oc2ccc(C(F)(F)F)cc2)c(CN(C)C)c1` [Example 30], the IC50 in series [1] (setting [2]) was no more than 50 nM.

Consider `CN(C)Cc1cc(S(N)(=O)=O)ccc1Oc1ccc(OC(F)(F)F)cc1` [Example 36], for which the IC50 in series [1] (setting [2]) is no more than 50 nM. On the same count and under the same terms, to `CSc1ccc(Oc2ccc(S(=O)(=O)N[C@@H](C)CO)cc2CN(C)C)cc1` [Example 53] belongs no more than 50 nM. The same measure, in the same setting: to `CNCc1cc(O)ccc1Oc1ccc(SC)cc1` [Example 74, 3-[(Methylamino)methyl]-4-[4-(methylsulfanyl)phenoxy]phenol] belongs no more than 50 nM; to `CN(C)Cc1cc(C#N)ccc1Oc1ccc(OC(F)(F)F)cc1` [Example 84], no more than 50 nM; to `CSc1ccc(Oc2ccc(C#N)cc2CN(C)C)cc1` [Example 85], no more than 50 nM. Still for that read-out and setting: to `CNCc1cc(C#N)ccc1Oc1ccc(SC)cc1` [Example 87, 3-[(Methylamino)methyl]-4-[4-(methylsulfanyl)phenoxy]benzonitrile] belongs no more than 50 nM; to `CN(C)Cc1ccc(C(N)=O)cc1Oc1ccc(C(F)(F)F)cc1` [Example 90, 4-[(Dimethylamino)methyl]-3-[4-(trifluoromethyl)phenoxy]benzamide], no more than 50 nM; to `CSc1ccc(Oc2ccc(C(N)=O)cc2CN(C)C)cc1` [Example 91, 3-[(Dimethylamino)methyl]-4-[4-(methylsulfanyl)phenoxy]benzamide], no more than 50 nM. With `CN(C)Cc1cc(C(N)=O)ccc1Oc1ccc(OC(F)(F)F)cc1` [Example 94], in series [1] (setting [2]), the IC50 is no more than 50 nM.

In the case of `CN(C)Cc1cc(C(N)=O)ccc1Oc1ccc(C(F)(F)F)cc1` [Example 95], the IC50 in series [1] (setting [2]) is no more than 50 nM. Same read-out and setting: to `CNCc1cc(C(N)=O)ccc1Oc1ccc(SC)cc1` [Example 97] belongs no more than 50 nM; to `CN(C)Cc1ccc(C(N)=O)cc1Oc1ccc(OC(F)(F)F)cc1` [Example 98, 4-[(Dimethylamino)methyl]-3-[4-(trifluoromethoxy)phenoxy]benzamide], no more than 50 nM. For the molecule `CNC(=O)c1ccc(Oc2ccc(OC(F)(F)F)cc2)c(CN(C)C)c1` [Example 101], in series [1] (setting [2]), the IC50 was no more than 50 nM. For `CN(C)Cc1cc(CN)ccc1Oc1ccc(OC(F)(F)F)cc1` [Example 110, N-{5-(Aminomethyl)-2-[4-(trifluoromethoxy)phenoxy]benzyl}-N,N-dimethylamine], the IC50 in series [1] (setting [2]) was no more than 50 nM.

In the case of `CN(C)Cc1cc(NS(C)(=O)=O)ccc1Oc1ccc(C(F)(F)F)cc1` [Example 114, N-(3-[(Dimethylamino)methyl]-4-[4-(trifluoromethyl)phenoxy]phenyl} methanesulfonamide], the half-maximal inhibitory concentration (IC50) in series [1] (setting [2]) is no more than 50 nM.

As to `CN(C)Cc1cc(NS(C)(=O)=O)ccc1Oc1ccc(OC(F)(F)F)cc1` [Example 116], in series [1] (setting [2]), the IC50 was no more than 50 nM.

`CN(C)Cc1cc(CNS(C)(=O)=O)ccc1Oc1ccc(OC(F)(F)F)cc1` [Example 117]: the half-maximal inhibitory concentration (IC50) in series [1] (setting [2]) was no more than 50 nM. Still for that read-out and setting: to `CN(C)Cc1ccc(CNS(C)(=O)=O)cc1Oc1ccc(OC(F)(F)F)cc1` [Example 120] belongs no more than 50 nM.

`CNCc1cc(NS(C)(=O)=O)ccc1Oc1ccc(C(F)(F)F)cc1` [Example 121, N-{3-[(Methylamino)methyl]-4-[4-(trifluoromethyl)phenoxy]phenyl}-methanesulfonamide]: the IC50 in series [1] (setting [2]) was no more than 50 nM. Take `CNCc1cc(NS(C)(=O)=O)ccc1Oc1ccc(SC)cc1` [Example 128, N-{3-[(Methylamino)methyl]-4-[4-(methylsulfanyl)phenoxy]phenyl}methanesulfonamide]: the IC50 in series [1] (setting [2]) is no more than 50 nM. Still for that read-out and setting: the value for `CNCc1cc(N(CCO)S(C)(=O)=O)ccc1Oc1ccc(SC)cc1` [Example 130] was no more than 50 nM. Still for that read-out and setting: to `CSc1ccc(Oc2ccc(Cl)cc2CN(C)C)cc1` [Example 135] belongs no more than 50 nM.

Molecule `CSc1ccc(Oc2ccc(NS(=O)(=O)C(F)(F)F)cc2CN(C)C)cc1` [Example 140, N-{3-[(Dimethylamino)methyl]-4-[4-(methylsulfanyl)phenoxy]phenyl}-(trifluoro)methanesulfonamide] yielded an IC50 in series [1] of no more than 50 nM. Consider `CSc1ccc(Oc2ccc(OC(F)(F)F)cc2)c(CN(C)C)c1` [Example 141, N,N-Dimethyl-N-{5-(methylsulfanyl)-2-[4-(trifluoromethoxy)phenoxy]benzyl}amine], for which the IC50 in series [1] (setting [2]) was no more than 50 nM. With `CN(C)Cc1cc(S(C)(=O)=O)ccc1Oc1ccc(OC(F)(F)F)cc1` [Example 145, N,N-Dimethyl-N-{5-(methylsulfonyl)-2-[4-(trifluoromethoxy)phenoxy]benzyl}amine], in series [1] (setting [2]), the IC50 is no more than 50 nM. As to `CN(C)Cc1cc([S+](C)[O-])ccc1Oc1ccc(C(F)(F)F)cc1` (stereo not shown) [Example 147], in series [1] (setting [2]), the IC50 was no more than 50 nM.

For the molecule `CC[S+]([O-])c1ccc(CN(C)C)c(Oc2ccc(C(F)(F)F)cc2)c1` (stereo not shown) [Example 148], the IC50 in series [1] (setting [2]) was no more than 50 nM. As to `CNCc1cc(CO)ccc1Oc1ccc(SC)cc1` [Example 156, {3-[(Methylamino)methyl]-4-[4-(methylsulfanyl)phenoxy]phenyl}methanol], the IC50 in series [1] (setting [2]) is no more than 50 nM.

Consider `CN(C)Cc1cc(CO)ccc1Oc1ccc(OC(F)(F)F)cc1` [Example 157], for which, in series [1] (setting [2]), the IC50 was no more than 50 nM.

In the case of `CNCc1cc(C(N)=O)ccc1Oc1ccc(SC)c(OC)c1` [Example 169, 4-[3-Methoxy-4-(methylsulfanyl)phenoxy]-3-[(methylamino)methyl]benzamide], in series [1] (setting [2]), the IC50 was no more than 50 nM. Take `CNCc1cc(C(=O)NCCOC)ccc1Oc1ccc(SC)cc1` [Example 170]: in series [1] (setting [2]), the IC50 was no more than 50 nM.

Take `CNCc1cc(C(=O)N[C@@H](C)CO)ccc1Oc1ccc(SC)cc1` [Example 174]: in series [1] (setting [2]), the IC50 is no more than 50 nM.

`CNCc1cc(C(=O)NC)ccc1Oc1ccc(SC)c(OC)c1` [Example 176]: in series [1] (setting [2]), the IC50 is no more than 50 nM. In turn, `CNCc1cc(-n2ccnn2)ccc1Oc1ccc(SC)cc1` [Example 181, N-Methyl-N-[2-[4-(methylsulfanyl)phenoxy]-5-(1 H-1,2,3-triazol-1-yl)benzyl]amine] showed an IC50 in series [1] of no more than 50 nM. In turn, `CNCc1cc(-n2nccn2)ccc1Oc1ccc(SC)cc1` [Example 182, N-methyl-N-[2-[4-(methylsulfanyl)phenoxy]-5-(2 H-1,2,3-triazol-2-yl)benzyl]amine] had an IC50 in series [1] of no more than 50 nM. Consider `CSc1ccc(Oc2ccc(-n3nccn3)cc2CN(C)C)cc1` [Example 183, N,N-Dimethyl-N-[2-[4-(methylsulfanyl)phenoxy]-5-(2 H-1,2,3-triazol-2-yl)benzyl]amine], for which the IC50 in series [1] was no more than 50 nM. With `CSc1ccc(Oc2ccc(-n3ccnn3)cc2CN(C)C)cc1` [Example 184, N,N-Dimethyl-N-[2-[4-(methylsulfanyl)phenoxy]-5-(1 H-1,2,3-triazol-1-yl)benzyl]-amine], the concentration for half-maximal inhibition (IC50) in series [1] (setting [2]) was no more than 50 nM.

For `CNCc1cc(-n2ccnc2)ccc1Oc1ccc(SC)cc1` [Example 185, N-[2-[4-(Methylsulfanyl)phenoxy]-5-(1 H-imidazol-1-yl)benzyl]-N-methylamine], the IC50 in series [1] is no more than 50 nM. The molecule `CNCc1cc(-n2cncn2)ccc1Oc1ccc(SC)cc1` [Example 187, N-Methyl-N-[2-[4-(methylsulfanyl)phenoxy]-5-(1 H-1,2,4-triazol-1-yl)benzyl]amine] registered an IC50 in series [1] of no more than 50 nM.

Consider `CSc1ccc(Oc2ccc(-n3cncn3)cc2CN(C)C)cc1` [Example 188, N,N-dimethyl-N-[2-[4-(methylsulfanyl)phenoxy]-5-(1 H-1,2,4-triazol-1-yl)benzyl]-amine], for which the IC50 in series [1] (setting [2]) was no more than 50 nM.

In series [1], `CSc1ccc(Oc2ccc(-n3cnnc3)cc2CN(C)C)cc1` [Example 189, N-[2-[4-(Methylsulfanyl)phenoxy]-5-(4H-1,2,4-triazol-4-yl)benzyl]-N,N-dimethylamine] returned an IC50 of no more than 50 nM. Take `CNCc1cc(-n2ccc(N)n2)ccc1Oc1ccc(SC)cc1` [Example 190, N-{5-(3-Amino-1H-pyrazol-1-yl)-2-[4-(methylsulfanyl)phenoxy]benzyl}-N-methylamine]: the half-inhibitory concentration (IC50) in series [1] (setting [2]) is no more than 50 nM.
